The values that follow come from PMC10987521, “An all-in-one tetrazine reagent for cysteine-selective labeling and bioorthogonal activable prodrug construction” (Nature Communications, 2024).

SMILES strings stand for the structures. pIC50: −log10 of the molar value.

In series [1] the test system is B16F10 cells. Kind of series: Cytotoxicity (CCK8, 48 h) of drugs, PDCs, activable-Drugs and TCO, B16F10. Format: cell-based, Mouse. The settings on record: Mus musculus, B16-F10; B16F10, 48 h, CCK8, n = 3; activable-Dox: RGD-Dox 2 h, then 200 μM TCO, 48 h in total.
A further series relates to U87 cells. Description: Cytotoxicity (CCK8, 48 h) of drugs, PDCs, activable-Drugs and TCO, U87. The settings on record: Homo sapiens, U-87 MG; U87, 48 h, CCK8, n = 3; activable-Dox: RGD-Dox 2 h, then 200 μM TCO, 48 h in total. Type of series: cell-based, Human.
The next series has as its system SKOV3 cells. Kind of series: Cytotoxicity (CCK8, 48 h) of drugs, PDCs, activable-Drugs and TCO, SKOV3. Format: cell-based, Human. The settings on record: Homo sapiens, SK-OV-3; SKOV3, 48 h, CCK8, n = 3; activable-Dox: RGD-Dox 2 h, then 200 μM TCO, 48 h in total.
The next series deals with LX2 cells. Description: Cytotoxicity (CCK8, 48 h) of drugs, PDCs, activable-Drugs and TCO, LX2. The settings on record: Homo sapiens, LX-2; LX2 (αvβ3-negative), 48 h, CCK8, n = 3; activable-Dox: RGD-Dox 2 h, then 200 μM TCO. Type of series: cell-based, Human.
For series [2], the system named is B16F10 cells. Kind of series: Cell uptake by fluorescence imaging, B16F10. Type of series: cell-based, Mouse. The settings on record: B16F10 and LX2 cells, 10 μM, 2 h. Here is the method:
(§1) B16F10 cells were cultured for 48 h. […]
(§2) 12.1 Calculation of the fluorescence coefficient (F c)
(§3) The Fc was the radio calculated
(§4) 12.2 Uptake calculation of the B16F10 cells […]
(§5) deviation were analyzed using Origin Pro 2015.
(§6) B16F10 cells, characterized by α vβ3
(§7) Following the incubation period, the
Subsequently, the cells were trypsinized and underwent three PBS rinses.
12 .4 Cell uptake analysis by fluorescence imaging

Series [3] relates to B16F10 cells. Kind of series: Comparison of cell uptake between RGD-Dox and Dox using flow cytometry. Type of series: cell-based, Mouse. The method, then: as §1, §2, §3, §4, §5, §6, §7
Subsequently, the cells were trypsinized and underwent three PBS rinses. […]

The subject of the next series is B16F10 melanoma tumor. Description: In vivo anticancer efficacy, subcutaneous B16F10 melanoma tumor model. More on the design: species or system BALB/c nude mice. Here is the method: Tumor-bearing mice were established by subcutaneously injecting a suspension of 5 × 10^5 B16F10 cells per mouse into the front flank of each nude mouse. When tumor volume reached 50−70 mm^3, the animals were randomly divided into five groups (n = 5). The mice were administered different compounds suspended in PBS via the tail vein every 3 days for a total of four times.
(§8) The mice underwent four treatment courses on day 0, day 3, day 6, and day 9. Tumor size and body weight were measured every day. Tumor volume was calculated via the following formula: V = 1/2 × (minor axis) × (major axis)[2].
(§9) After 12 days, the mice were sacrificed and dissected to obtain tumor tissues and main organs, including heart, liver, spleen, lung, and kidney. Subsequently, all tissues were fixed in a 4% paraformaldehyde solution, routinely paraffin-embedded and sectioned, and then stained with hematoxylin and eosin, as well as using TdT-mediated dUTP nick-end labeling (TUNEL) for subsequent pathological analysis. TUNEL-positive cells appeared fluorescent green, representing the apoptosis of tumor cells (nuclei were fluorescent blue, stained with DAPI).
13. In vivo anticancer efficacy […]
13.2 Calculation of the tumor growth inhibition values (TGI)
Tumor growth inhibition values (TGI) were calculated using the following formula: TGI (%) = (1 − RTVtreatment/
RTVcontrol)*100. RTV refers to relative tumor volume, representing the ratio of the volume at the end of treatment to the
volume at the beginning of treatment. […]

Series [4] in a line: Body weight and organ histology in the B16F10 tumor model. Format: in vivo, BALB/c nude mice. Here is the method: as §8, §9
Series [5] concerns B16F10, U87, SKOV3 and LX2 cells. Kind of series: Cytotoxicity (CCK8, 48 h), figures stated across several cell lines. Format: cell-based. The settings on record: read-out: IC50 values against all four cell lines.
Series [6] can be described thus: Labeling reaction kinetics between tetrazine 1 and Cys. Type of series: physicochemical. The settings on record: 25 °C, PB (30% MeCN, 20 mM, pH 8.0), equal concentrations, UV-Vis 300 nm. Here is the method: The second-order rate constant for the labeling reactions between tetrazine 1 and Cys was determined at 25 °C in PB (30% MeCN, 20 mM, pH 8.0) under second-order conditions using a 6000+ (Quawell) UV-Vis spectrophotometer. The concentrations of cysteine and tetrazine were identical. The specific difference in absorption wavelength (300 nm) between 1 and Cys-1 was measured over time. The second-order rate constant k2 was calculated from the slope of a plot of (1/c – 1/c0) versus time.
5. Competitive labeling reaction with other nucleophilic amino acids
For the competitive labeling experiment, 10 equiv. (2 mM) of N-Fmoc-Lys, N-Fmoc-Arg, Ser, Tyr, and 1.3 equiv. […] The resulting solution was maintained at 25 °C and monitored by LC –MS. […]
Each voTz analogue (1.1 equiv.) was added to a 0.25 mL vial containing solvent. […] The chromatogram peak areas of all relevant Cys -containing species were integrated, and the yiel d was determined using the following equation: Yield (%) = Iproduct/(Istarting + Iproduct + Ioxidation + Iside product) × 100, where Istarting, Iproduct, Ioxidation, and Iside product respectively represent the average ion counts of remaining starting material, product, oxidized starting material and any side product, if present 2. […]
DLS analyses and particle zeta potential values were determined using a Nano ZS ZEN 3690 instrument (Malvern […]

`COc1cccc2c1C(=O)c1c(O)c3c(c(O)c1C2=O)C[C@@](O)(C(=O)CO)C[C@@H]3O[C@H]1C[C@H](N)[C@H](O)[C@H](C)O1` [Dox, doxorubicin]: the pIC50 in the series on B16F10 cells [1] was 5.69; in the series with U87 cells, 5.49; with SKOV3 cells, 5.35; in the series with LX2 cells it was 5.47; in series [5] it was 5.35 to 5.69. For the same molecule, in the series on B16F10 cells [2], the “cellular uptake of free drug (imaging)” value was “obvious uptake through nonspecific diffusion and internalization”. Moreover, the Normalized uptake is given as 1 in the series with B16F10 cells [3] (normalized to Dox = 1, Data 1); 1 in the series with B16F10 cells [3] (normalized to Dox = 1, Data 2); 1 with B16F10 cells [3] (normalized to Dox = 1, Data 3). Also, the “tumor growth inhibition values (TGI %)” value in the series on B16F10 melanoma tumor (Data 5) worked out at 46.63%. Also, the “tumor growth inhibition value (TGI)” value in the series with B16F10 melanoma tumor (after four i.v. courses (days 0, 3, 6, 9), 3.67 μmol·kg^−1, n = 5, TGI = (1 − RTVtreatment/RTVcontrol)*100) stood at 59.4%. Besides, the “tumor growth / inhibition in words” value in the series on B16F10 melanoma tumor (four i.v. courses, 3.67 μmol·kg^−1 (TCO-P4 36.7 μmol·kg^−1), n = 5) is given as “slightly slowed the tumor growth”. Also, the “histology of heart, liver, spleen, lung, kidney” value in series [4] (after 12 days) is on record as “typical inflammatory injury”. In series [4] (four i.v. courses, 3.67 μmol·kg^−1, compared with PBS group), the “body weight in words” value is “serious loss of body weight”.

Consider `C=Cc1nnc(-c2ccccc2)nn1` [compound 1, phenyl vinyltetrazine], for which, in series [6], the “second-order rate constant of the labeling reaction between 1 and Cys” value is 13 ± 0.8 M⁻¹ s⁻¹.
